Tests used:
[1] = test system: sodium channel site 2; experiment: Inhibition of rat sodium channel site2 at 10 uM incubated for 60 mins by scintillation counting method
[2] = target: Alpha-1A adrenergic receptor (Rattus norvegicus, UniProt P43140); experiment: Inhibition of rat adrenergic alpha1A receptor at 10 uM relative to control
[3] = Toxicity in C57BL/6 mouse assessed as mouse death at 50 mg/kg, po QD administered for 5 days measured after 24 hrs; assay type: organism-based; conditions: in vivo
[4] = Ratio of drug level in brain to plasma in CB17 SCID mouse at 25 mg/kg, po measured at 4 h; assay type: ADME, organism-based; conditions: read-out: BPR
[5] = Toxicity in C57BL/6 mouse assessed as gross pathology at 25 mg/kg, po QD administered for 5 days measured after 24 hrs relative to control; assay type: organism-based; conditions: in vivo
[6] = Plasma concentration in NOD/SCID mouse at 25 mg/kg, po measured after 0.5 to 6 hrs; assay type: ADME, organism-based; conditions: in vivo
[7] = Toxicity in C57BL/6 mouse assessed as gross pathology at 50 mg/kg, po QD administered for 5 days measured after 24 hrs relative to control; assay type: organism-based; conditions: in vivo
[8] = Toxicity in C57BL/6 mouse assessed as body weight loss at 50 mg/kg, po QD administered for 5 days measured after 24 hrs relative to control; assay type: organism-based; conditions: in vivo
[9] = Toxicity in C57BL/6 mouse assessed as body weight loss at 25 mg/kg, po BID administered for 5 days measured after 24 hrs relative to control; assay type: organism-based; conditions: in vivo
[10] = Toxicity in C57BL/6 mouse assessed as gross pathology at 100 mg/kg, po QD administered for 5 days measured after 24 hrs relative to control; assay type: organism-based; conditions: in vivo
[11] = Unbound drug level in CD-1 mouse brain at 1 mg/kg, iv measured at 2 hrs; assay type: ADME, organism-based; conditions: in vivo
[12] = target: Cytochrome P450 3A4 (Homo sapiens, UniProt P08684); experiment: Inhibition of CYP3A4 in human liver microsomes using testosterone as substrate incubated for 10 mins in presence of NADPH by LC/MS/MS analysis; assay type: ADME
[13] = Drug level in CD-1 mouse brain at 1 mg/kg, iv measured at 2 hrs; assay type: ADME, organism-based; conditions: read-out: Drug uptake
[14] = Protein binding in CD-1 mouse brain at 1 mg/kg, iv measured at 2 hrs; assay type: ADME, organism-based; conditions: read-out: PB (converted)
[15] = target: Activin receptor type-1-like (Homo sapiens, UniProt P37023); experiment: Inhibition of human ALK1 using casein as substrate in presence of [gamma-33P]-ATP by radiometric hotspot assay
[16] = Unbound brain-to-plasma concentration ratio in CD-1 mouse plasma at 1 mg/kg, iv measured at 2 hrs; assay type: ADME, organism-based; conditions: read-out: K(p,uu,brain)
[17] = Ratio of drug level in brain to plasma in CB17 SCID mouse at 50 mg/kg, po measured at 4 h; assay type: ADME, organism-based; conditions: read-out: BPR
[18] = target: T1, Activin receptor type-1 (Homo sapiens, UniProt Q04771); experiment: Competitive displacement of PBI-6908 from nanoluciferase-fused ALK2 (unknown origin) expressed in HEK293 cells incubated for 2 hrs by NanoBRET NanoGlo substrate based NanoBRET assay; assay type: cell-based
T1 sequence (Q04771 whole entry): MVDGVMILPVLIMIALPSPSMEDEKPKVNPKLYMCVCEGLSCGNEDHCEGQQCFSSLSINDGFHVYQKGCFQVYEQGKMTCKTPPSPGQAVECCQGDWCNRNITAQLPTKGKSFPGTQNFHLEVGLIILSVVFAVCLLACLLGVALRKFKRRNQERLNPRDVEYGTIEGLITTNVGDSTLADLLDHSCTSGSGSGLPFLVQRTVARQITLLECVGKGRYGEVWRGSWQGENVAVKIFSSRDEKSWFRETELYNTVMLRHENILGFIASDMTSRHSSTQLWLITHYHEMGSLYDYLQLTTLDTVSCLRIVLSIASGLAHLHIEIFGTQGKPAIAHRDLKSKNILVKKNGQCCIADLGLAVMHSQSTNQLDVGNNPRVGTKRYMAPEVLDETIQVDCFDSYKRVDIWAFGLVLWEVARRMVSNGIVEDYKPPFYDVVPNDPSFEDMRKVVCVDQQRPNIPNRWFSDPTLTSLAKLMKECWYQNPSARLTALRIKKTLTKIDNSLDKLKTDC

[19] = Drug concentration in CB17 SCID mouse brain at 100 mg/kg after 0.25 to 24 hrs; assay type: ADME, organism-based; conditions: in vivo, read-out: Drug uptake

Sequence of Alpha-1A adrenergic receptor (P43140 whole entry): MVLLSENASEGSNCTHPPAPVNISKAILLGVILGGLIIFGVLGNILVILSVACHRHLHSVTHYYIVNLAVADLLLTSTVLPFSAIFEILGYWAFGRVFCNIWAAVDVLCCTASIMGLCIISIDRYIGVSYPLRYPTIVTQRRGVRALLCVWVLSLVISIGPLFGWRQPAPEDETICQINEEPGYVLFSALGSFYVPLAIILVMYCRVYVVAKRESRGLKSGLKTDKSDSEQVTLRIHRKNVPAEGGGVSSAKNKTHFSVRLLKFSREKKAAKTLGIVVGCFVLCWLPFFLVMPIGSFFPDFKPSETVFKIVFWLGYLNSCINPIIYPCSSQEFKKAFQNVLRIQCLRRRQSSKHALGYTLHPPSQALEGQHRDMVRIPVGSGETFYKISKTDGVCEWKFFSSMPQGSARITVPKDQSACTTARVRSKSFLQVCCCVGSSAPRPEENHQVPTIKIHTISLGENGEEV
Sequence of Cytochrome P450 3A4 (P08684 whole entry): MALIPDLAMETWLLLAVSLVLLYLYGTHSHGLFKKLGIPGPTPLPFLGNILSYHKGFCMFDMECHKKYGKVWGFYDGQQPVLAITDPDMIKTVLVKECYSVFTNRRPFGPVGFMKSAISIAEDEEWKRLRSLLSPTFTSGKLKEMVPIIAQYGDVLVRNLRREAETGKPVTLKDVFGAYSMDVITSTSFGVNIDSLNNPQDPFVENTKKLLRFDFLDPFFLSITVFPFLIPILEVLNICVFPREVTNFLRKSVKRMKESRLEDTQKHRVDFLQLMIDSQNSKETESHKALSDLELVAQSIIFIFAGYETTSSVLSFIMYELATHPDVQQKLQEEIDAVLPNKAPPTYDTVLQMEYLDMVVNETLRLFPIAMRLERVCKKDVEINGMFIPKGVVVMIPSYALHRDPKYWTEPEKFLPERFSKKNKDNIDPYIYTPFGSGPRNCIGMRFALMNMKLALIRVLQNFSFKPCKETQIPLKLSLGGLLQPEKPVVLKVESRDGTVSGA
Sequence of Activin receptor type-1-like (P37023 whole entry): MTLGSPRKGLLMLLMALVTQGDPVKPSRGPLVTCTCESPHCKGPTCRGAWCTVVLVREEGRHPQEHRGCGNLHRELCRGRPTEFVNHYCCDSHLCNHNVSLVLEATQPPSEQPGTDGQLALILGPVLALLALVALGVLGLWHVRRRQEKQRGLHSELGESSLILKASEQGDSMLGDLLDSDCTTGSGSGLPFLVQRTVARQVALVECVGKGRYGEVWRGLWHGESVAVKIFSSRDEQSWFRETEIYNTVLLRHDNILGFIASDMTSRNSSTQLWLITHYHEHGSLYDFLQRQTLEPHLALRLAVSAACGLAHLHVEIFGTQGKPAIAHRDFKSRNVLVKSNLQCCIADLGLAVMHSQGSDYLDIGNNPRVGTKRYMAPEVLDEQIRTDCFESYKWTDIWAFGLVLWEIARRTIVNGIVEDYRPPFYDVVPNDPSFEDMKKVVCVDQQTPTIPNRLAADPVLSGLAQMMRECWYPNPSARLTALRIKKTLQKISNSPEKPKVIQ

Row | SMILES | inhibition at 1 h, 10 µM [1] [%] | inhibition at 10 µM [2] [%] | Activity [3] | Kp at 4 h [4] | Activity [5] | concentration [6] [µM] | Activity [7] | Activity [8] | Activity [9] | Activity [10] | Drug uptake(free) [11] [nM] | IC50 [12] [µM] | concentration at 2 h [13] [µM] | fraction unbound at 2 h [14] | IC50 [15] [µM] | Kp uu at 2 h [16] | Kp at 4 h [17] | IC50 [18] [µM] | concentration [19] [µM]
1 | COc1cc(-c2cncc(-c3ccc(N4CCNCC4)cc3)c2C)cc(OC)c1OC | 72 | 65 | Non-Toxic | 1.5 | Non-Toxic | 7.46 | Non-Toxic | Non-Toxic | Non-Toxic | Non-Toxic | 3.7 | > 9 | 0.123 | 0.03 | 0.015 | 0.3 | 1.8 |  | 
2 | COc1cc(-c2cncc(-c3ccc(C4CCN(C)CC4)cc3)c2C)cc(OC)c1OC |  |  |  |  |  |  |  |  |  |  |  |  |  |  |  |  |  | 0.029 | 39

Source: ChEMBL document CHEMBL4622974, “Leveraging an Open Science Drug Discovery Model to Develop CNS-Penetrant ALK2 Inhibitors for the Treatment of Diffuse Intrinsic Pontine Glioma” (J Med Chem, 2020)
